Source: publication PMC6156755, “Using Human Plasma as an Assay Medium in Caco-2 Studies Improves Mass Balance for Lipophilic Compounds” (Pharmaceutical Research, 2018)
Read-outs that look alike come from different tables or passages of the source. Marks after values point to notes of the source that are not given here.

How the values were obtained:
Caco-2 cell monolayer [1] = test: Caco-2 permeability assay with pH 7.4 buffer or human plasma in both chambers; details: for Mass balance: both directions (where assessed) and both media; for Permeability Classification: criteria of Table V
[2] = as above; details: human; for Papp B→A: Caco-2, pH 7.4, Papp B-A; for efflux ratio: Caco-2, pH 7.4, Efflux ratio (B-A/A-B)
Caco-2 cell monolayer [3] = system: Caco-2 cell monolayer
[4] = Human plasma protein binding (ultracentrifugation or rapid equilibrium dialysis); type: in vitro ADME; details: for fraction unbound: neat human plasma, 37°C, concentration comparable to Caco-2 assay
Protocol: Binding was assessed using one of two methods: ultracentrifugation ([31]) using neat human plasma or rapid equilibrium dialysis (RED) using either neat or diluted plasma. […] To allow analysis with a single calibration curve, the total plasma and protein-free supernatant samples were ‘matrix-matched’ by taking aliquots of protein-free supernatant samples and adding to fresh tubes containing an equal volume of blank plasma, or taking aliquots of the total plasma samples and adding to fresh tubes containing an equal volume of Dulbecco’s phosphate-buffered saline (DPBS). In this way, the final composition of both the protein-free supernatant samples and the total plasma samples were ‘matched’ prior to the analysis against a common calibration curve prepared in a 1:1 mixture of human plasma and DPBS. All samples were then stored frozen at −80°C until analysis.
The holding plate was then placed on a plate shaker (set at 800 rpm; ThermoMixer C, Eppendorf) and maintained at 37°C under a 2% CO2 atmosphere. The dialysis was conducted for 6 h, assuming steady state was achieved by the end of this period ([32]). Samples were then removed from both the donor and dialysate chambers of each RED insert. […] Samples were matrix matched as described above (but using PBS buffer instead of DPBS) and stored at −80°C until analysis.
For the more lipophilic compounds with potential for very high binding, the RED method was used with diluted plasma to increase the chance of detecting concentrations in the dialysate samples. Diluted human plasma (10% v/v in pH 7.4 phosphate buffered saline) was spiked with each compound (at 10% of the concentration used for the Caco-2 experiment with neat plasma) and binding conducted as described above. The binding in neat plasma was then calculated by correcting for the dilution as described below.
For binding measurements in neat plasma by ultracentrifugation, the fraction unbound (fu) was calculated from the ratio of the average unbound concentration in protein free supernate (Cunbound) to the average total concentration in non-centrifuged plasma (Ctotal). The standard deviation (SD) for the fu value was calculated using the propagation of errors approach as described previously ([33]). For binding measurements using the RED method in neat plasma, fu was calculated from the ratio of the dialysate to total plasma concentration for each dialysis unit and the mean and SD calculated for replicate units (n = 3).
For RED binding assessments using 10% plasma, the fu − diluted for individual dialysis units was calculated in the same way as described above.

in vitro = details: human; for Papp A→B: Caco-2, pH 7.4, Papp A-B; for Papp B→A: Caco-2, pH 7.4, Papp B-A
P-gp = test: Caco-2 permeability assay with pH 7.4 buffer or human plasma in both chambers; details: human, Caco-2, pH 7.4, with verapamil 100 µM, Papp B-A, + 100 μM verapamil
[5] = cited from earlier work
[6] = Caco-2, pH 7.4, Papp A-B, buffer pH 7.4 in both chambers
[7] = pH 7.4, read-out: fu (fraction unbound in plasma)
[8] = buffer (HBSS/HEPES pH 7.4) in both chambers
[9] = Caco-2, pH 7.4, Papp A-B, human plasma in both chambers, corrected for fu in donor
[10] = human, values from the literature

Compound | Mass balance B-A (Caco-2 cell monolayer [1]; buffer pH 7.4 in both chambers) [%] | Mass balance B-A (Caco-2 cell monolayer [1]; human plasma in both chambers) [%] | Papp A→B [2, 6] [×10⁻⁶ cm/s] | Papp B→A ([2]; buffer pH 7.4 in both chambers) [×10⁻⁶ cm/s] | fraction unbound [4, 7] | Papp A→B (in vitro) [×10⁻⁶ cm/s] | Papp B→A (in vitro) [×10⁻⁶ cm/s] | Mass balance A-B (Caco-2 cell monolayer [1]; [8]) [%] | Mass balance A-B (Caco-2 cell monolayer [1]; human plasma in both chambers) | Human FA (fraction absorbed) [5, 10] [%] | other results
OC(c1cc(C(F)(F)F)nc2c(C(F)(F)F)cccc12)C1CCCCN1 (stereo not drawn) [Mefloquine, mefloquine] | 86 ± 6.7 | 86 ± 3.1 | 2.1 ± 0.65 | 4.7 ± 0.35 |  | 180 ± 20 | 150 ± 10 | 15 ± 2.6 | 70 ± 2.6^b % |  | Permeability Classification (Caco-2 cell monolayer [1]; buffer pH 7.4): Intermediate; Mass balance A-B (Caco-2 cell monolayer [1]; human plasma in both chambers, listed as mefloquine): 60–70%; Permeability Classification (Caco-2 cell monolayer [1]; human plasma): High (Papp ≥ 8.15); efflux ratio ([2]; buffer pH 7.4 in both chambers): 2.2 ± 0.7; efflux ratio ([2]; human plasma in both chambers): 0.83 ± 0.11; fraction unbound at 6 h ([4]; pH 7.4, RED with diluted human plasma (10% v/v), corrected for dilution, < values from LLOQ, read-out: fu (fraction unbound in plasma)): 0.015
CCN(CC)Cc1cc(Nc2ccnc3cc(Cl)ccc23)ccc1O [Amodiaquine, amodiaquine] | 93 ± 4.0 | 88 ± 4.6 | 4.5 ± 0.12 | 7.1 ± 1.9 | 0.12 | 90 ± 8.3 | 63 ± 9.6 | 33 ± 1.7 | 81 ± 6.1^b % |  | Permeability Classification (Caco-2 cell monolayer [1]; buffer pH 7.4): Intermediate; Permeability Classification (Caco-2 cell monolayer [1]; human plasma): High (Papp ≥ 8.15); efflux ratio ([2]; buffer pH 7.4 in both chambers): 1.6 ± 0.43; efflux ratio ([2]; human plasma in both chambers): 0.7 ± 0.12
lucifer yellow |  |  |  |  |  |  |  |  |  |  | Mass balance (Caco-2 cell monolayer [3]; Caco-2): > 80%; Mass balance A-B (Caco-2 cell monolayer [3]; Caco-2): 98 ± 4.7%; Papp A-B (Caco-2 cell monolayer [3]; Caco-2): 0.17 ± 0.069 10^−6 cm/s; Mass balance A-B (Caco-2 cell monolayer [3]; Caco-2, pH 7.4): 86 ± 6.7%; Papp A-B (Caco-2 cell monolayer [3]; Caco-2, pH 7.4): 0.21 ± 0.085 10^−6 cm/s; fu (fraction unbound in plasma) ([4]; human, plasma): 0.51; Human FA (fraction absorbed) ([5]; in vivo): 0%
COc1ccc2cc([C@H](C)C(=O)O)ccc2c1 [Naproxen, naproxen] |  |  |  |  |  |  |  |  |  | 100 | 
CN/C(=N/CCSCc1nc[nH]c1C)NC#N [Cimetidine, cimetidine] |  |  | 1.7 ± 0.45 |  | 0.76 | 1.9 ± 0.26 |  |  |  | 64 | Mass balance (Caco-2 cell monolayer [1]): > 80%
CC(C)NCC(O)COc1ccc(CC(N)=O)cc1 (stereo not drawn) [Atenolol, atenolol] |  |  |  |  |  |  |  |  |  | 55 | 

More lines, main results first:

Mass balance B-A (Caco-2 cell monolayer [1]; buffer pH 7.4 in both chambers) [%] | Mass balance B-A (Caco-2 cell monolayer [1]; human plasma in both chambers) [%] | Papp A→B [2, 6] [×10⁻⁶ cm/s] | Papp B→A ([2]; buffer pH 7.4 in both chambers) [×10⁻⁶ cm/s] | fraction unbound [4, 7] | Papp A→B (in vitro) [×10⁻⁶ cm/s] | Papp B→A (in vitro) [×10⁻⁶ cm/s] | Mass balance A-B (Caco-2 cell monolayer [1]; [8]) [%] | Mass balance A-B (Caco-2 cell monolayer [1]; human plasma in both chambers) | Compound | Human FA (fraction absorbed) [5, 10] [%] | other results
97 ± 0.58 | 99 ± 2.3 | 58 ± 4.5 | 52 ± 4 | 0.25 | 120 ± 35 | 110 ± 19 |  |  | CC(C)NCC(O)COc1cccc2ccccc12 (stereo not drawn) [Propranolol, propranolol] |  | Increase in Papp using plasma compared to buffer (Caco-2 cell monolayer [3]; human, Caco-2, pH 7.4): 2-3 fold
100 ± 0 | 100 ± 5.8 | 2.7 ± 0.21 | 18 ± 0.58 | 0.61 | 4.7 ± 0.15 | 26 ± 1.5 |  |  | C[C@H]1O[C@@H](O[C@H]2[C@@H](O)C[C@H](O[C@H]3[C@@H](O)C[C@H](O[C@H]4CC[C@@]5(C)[C@H](CC[C@@H]6[C@@H]5C[C@@H](O)[C@]5(C)[C@@H](C7=CC(=O)OC7)CC[C@]65O)C4)O[C@@H]3C)O[C@@H]2C)C[C@H](O)[C@@H]1O [^3H-Digoxin, [^3H(G)]-digoxin] |  | Papp B→A (P-gp; buffer): 5.8 ± 0.53 ×10⁻⁶ cm/s; Papp B→A (P-gp; plasma, corrected for fu): 7.4 ± 0.49 ×10⁻⁶ cm/s; Mass balance B-A (Caco-2 cell monolayer [1]; buffer, + 100 μM verapamil): 100 ± 0.58%; Mass balance A-B (Caco-2 cell monolayer [1]; buffer, + 100 μM verapamil (P-gp inhibitor)): 99 ± 0.58%; Mass balance A-B (Caco-2 cell monolayer [1]; plasma, + 100 μM verapamil): 96 ± 2.1%; Mass balance B-A (Caco-2 cell monolayer [1]; plasma, + 100 μM verapamil): 99 ± 0.58%; Papp A→B ([2]; Caco-2, pH 7.4, with verapamil 100 µM, Papp A-B, buffer, + 100 μM verapamil): 4.6 ± 0.46 ×10⁻⁶ cm/s; Papp A→B ([2]; Caco-2, pH 7.4, with verapamil 100 µM, Papp A-B, plasma, + 100 μM verapamil, corrected for fu): 6.2 ± 1 ×10⁻⁶ cm/s
99 ± 1.7 | 97 ± 5.2 | 0.29 ± 0.051 | 0.56 ± 0.026 | 0.83 |  |  | 99 ± 2.3 | 96 ± 4.0% | OC[C@@H](O)[C@@H](O)[C@H](O)[C@H](O)CO [^14C-Mannitol, D-[1-^14C]-mannitol] | 26 | Mass balance (Caco-2 cell monolayer [1]): > 80%; efflux ratio ([2]; buffer pH 7.4 in both chambers): 1.9 ± 0.35; efflux ratio ([2]; human plasma in both chambers): 1.4 ± 0.37; Papp A→B [2, 9]: 0.31 ± 0.081 ×10⁻⁶ cm/s; Papp B→A ([2]; human plasma in both chambers, corrected for fu in donor): 0.43 ± 0.021 ×10⁻⁶ cm/s
 |  | 0.99 ± 0.11 |  | 0.92 |  |  | 97 ± 11 | 92 ± 7.2% | CNC(=C[N+](=O)[O-])NCCSCc1ccc(CN(C)C)o1 [Ranitidine, ranitidine] | 50 | Mass balance (Caco-2 cell monolayer [1]): > 80%; Papp A→B [2, 9]: 2.1 ± 0.058 ×10⁻⁶ cm/s
 |  | 32 ± 2.9 |  | 0.86 |  |  | 92 ± 3.8 | 92 ± 0.58% | CC(=O)Nc1ccc(O)cc1 [Paracetamol, paracetamol] | 90 | Papp A→B [2, 9]: 37 ± 4 ×10⁻⁶ cm/s
